US12077503B2, “Substituted cyclic amides and their use as herbicides” (FMC CORPORATION, priority 2015, dated 2024)

Key:
Type in all cases: in vivo
[1] = system: barnyardgrass (Echinochloa crus-galli); assay: Test A preemergence; details: Echinochloa crus-galli, pre-emergence, 240 h; for pest or weed control at 125 g/ha: 125 g ai/ha, Preemergence, visual injury rating after approximately 10 d, read-out: Barnyardgrass plant response rating (0 to 100 scale, 0 is no effect, 100 is complete control); for pest or weed control at 500 g/ha: 500 g ai/ha, preemergence, visual injury rating about 10 d after treatment, 0 to 100 scale (0 no effect, 100 complete control), read-out: Barnyardgrass plant response rating
Outline: (§1)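 Compounds were formulated in a non-phytotoxic solvent mixture with surfactant and applied as a preemergence directed soil spray after seeding, or sprayed postemergence over plants 2 to 10 cm tall at the one- to two-leaf stage. Evaluation after about 10 d compared treated with untreated controls, using a scale from 0 (no effect) to 100 (complete control).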

[2] = system: ragweed (common ragweed, Ambrosia elatior); assay: Test A preemergence; details: Ambrosia artemisiifolia, pre-emergence, 240 h; for pest or weed control at 125 g/ha: 125 g ai/ha, Preemergence, visual injury rating after approximately 10 d, read-out: Ragweed plant response rating (0 to 100 scale, 0 is no effect, 100 is complete control); for pest or weed control at 500 g/ha: 500 g ai/ha, preemergence, visual injury rating about 10 d after treatment, 0 to 100 scale (0 no effect, 100 complete control), read-out: Ragweed plant response rating
Outline: as §1

[3] = system: Kochia (Kochia scoparia); assay: Test A preemergence; details: Bassia scoparia, pre-emergence, 240 h; for pest or weed control at 125 g/ha: 125 g ai/ha, Preemergence, visual injury rating after approximately 10 d, read-out: Kochia plant response rating (0 to 100 scale, 0 is no effect, 100 is complete control); for pest or weed control at 500 g/ha: 500 g ai/ha, preemergence, visual injury rating about 10 d after treatment, 0 to 100 scale (0 no effect, 100 complete control), read-out: Kochia plant response rating
Outline: as §1

[4] = system: giant foxtail (Setaria faberii); assay: Test A preemergence; details: Setaria faberi, pre-emergence, 240 h; for pest or weed control at 125 g/ha: 125 g ai/ha, Preemergence, visual injury rating after approximately 10 d, read-out: Foxtail, Giant plant response rating (0 to 100 scale, 0 is no effect, 100 is complete control); for pest or weed control at 500 g/ha: 500 g ai/ha, preemergence, visual injury rating about 10 d after treatment, 0 to 100 scale (0 no effect, 100 complete control), read-out: Foxtail, Giant plant response rating
Outline: as §1

[5] = system: pigweed (Amaranthus retroflexus); assay: Test A preemergence; details: Amaranthus retroflexus, pre-emergence, 240 h; for pest or weed control at 125 g/ha: 125 g ai/ha, Preemergence, visual injury rating after approximately 10 d, read-out: Pigweed plant response rating (0 to 100 scale, 0 is no effect, 100 is complete control); for pest or weed control at 500 g/ha: 500 g ai/ha, preemergence, visual injury rating about 10 d after treatment, 0 to 100 scale (0 no effect, 100 complete control), read-out: Pigweed plant response rating
[6] = system: ryegrass, Italian (Italian ryegrass, Lolium multiflorum); assay: Test A preemergence; details: Lolium multiflorum, pre-emergence, 240 h; for pest or weed control at 125 g/ha: 125 g ai/ha, Preemergence, visual injury rating after approximately 10 d, read-out: Ryegrass, Italian plant response rating (0 to 100 scale, 0 is no effect, 100 is complete control); for pest or weed control at 500 g/ha: 500 g ai/ha, preemergence, visual injury rating about 10 d after treatment, 0 to 100 scale (0 no effect, 100 complete control), read-out: Ryegrass, Italian plant response rating
Outline: as §1

[7] = system: barnyardgrass (Echinochloa crus-galli); assay: Test B flooded paddy test; details: Echinochloa crus-galli, Flood, 250 g ai/ha; scale of 0 to 100 where 0 is no effect and 100 is complete control; read-out: Barnyardgrass plant response rating
Outline: (§2)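 2-leaf plants; pots flooded 3 cm over soil; cpd added to paddy water; depth held; greenhouse 13–15 d; visual rating vs controls, 0 = no effect, 100 = complete control.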

[8] = system: ducksalad (Heteranthera limosa); assay: Test B flooded paddy test; details: Heteranthera limosa, Flood, 250 g ai/ha; scale of 0 to 100 where 0 is no effect and 100 is complete control; read-out: Ducksalad plant response rating
Outline: as §2

[9] = system: rice (Oryra sativa); assay: Test B flooded paddy test; details: Oryza sativa, Flood, 250 g ai/ha; scale of 0 to 100 where 0 is no effect and 100 is complete control; read-out: Rice plant response rating
Outline: as §2

[10] = system: sedge, umbrella (small-flower umbrella sedge, Cyperus difformis); assay: Test B flooded paddy test; details: Cyperus difformis, Flood, 250 g ai/ha; scale of 0 to 100 where 0 is no effect and 100 is complete control; read-out: Sedge, Umbrella plant response rating
Outline: as §2

[11] = system: corn (Zea mays); assay: Test A postemergence; details: Zea mays, post-emergence, 240 h, 125 g ai/ha, Postemergence; visual injury after approximately 10 d; 0 to 100 scale where 0 is no effect and 100 is complete control
Outline: as §1

[12] = system: Galium (catchweed bedstraw, Galium aparine); assay: Test A postemergence; details: Galium, post-emergence, 240 h, 125 g ai/ha, Postemergence; visual injury after approximately 10 d; 0 to 100 scale where 0 is no effect and 100 is complete control; read-out: Plant response rating, Galium
Outline: as §1

[13] = system: barnyardgrass (Echinochloa crus-galli); assay: Test A postemergence; details: Echinochloa crus-galli, post-emergence, 240 h, 125 g ai/ha, Postemergence; visual injury after approximately 10 d; 0 to 100 scale where 0 is no effect and 100 is complete control; read-out: Plant response rating, Barnyardgrass
Outline: as §1

[14] = system: ragweed (common ragweed, Ambrosia elatior); assay: Test A postemergence; details: Ambrosia artemisiifolia, post-emergence, 240 h, 125 g ai/ha, Postemergence; visual injury after approximately 10 d; 0 to 100 scale where 0 is no effect and 100 is complete control; read-out: Plant response rating, Ragweed
Outline: as §1

[15] = system: Kochia (Kochia scoparia); assay: Test A postemergence; details: Bassia scoparia, post-emergence, 240 h, 125 g ai/ha, Postemergence; visual injury after approximately 10 d; 0 to 100 scale where 0 is no effect and 100 is complete control; read-out: Plant response rating, Kochia
Outline: as §1

[16] = system: blackgrass (Alopecurus myosuroides); assay: Test A postemergence; details: Alopecurus myosuroides, post-emergence, 240 h, 125 g ai/ha, Postemergence; visual injury after approximately 10 d; 0 to 100 scale where 0 is no effect and 100 is complete control; read-out: Plant response rating, Blackgrass
Outline: as §1

[17] = system: wheat (Triticum aestivum); assay: Test A postemergence; details: Triticum aestivum, post-emergence, 240 h, 125 g ai/ha, Postemergence; visual injury after approximately 10 d; 0 to 100 scale where 0 is no effect and 100 is complete control; read-out: Plant response rating, Wheat
Outline: as §1

[18] = system: giant foxtail (Setaria faberii); assay: Test A postemergence; details: Setaria faberi, post-emergence, 240 h, 125 g ai/ha, Postemergence; visual injury after approximately 10 d; 0 to 100 scale where 0 is no effect and 100 is complete control; read-out: Plant response rating, Foxtail, Giant
Outline: as §1

[19] = system: pigweed (Amaranthus retroflexus); assay: Test A postemergence; details: Amaranthus retroflexus, post-emergence, 240 h, 125 g ai/ha, Postemergence; visual injury after approximately 10 d; 0 to 100 scale where 0 is no effect and 100 is complete control; read-out: Plant response rating, Pigweed
Outline: as §1

[20] = system: ryegrass, Italian (Italian ryegrass, Lolium multiflorum); assay: Test A postemergence; details: Lolium multiflorum, post-emergence, 240 h, 125 g ai/ha, Postemergence; visual injury after approximately 10 d; 0 to 100 scale where 0 is no effect and 100 is complete control; read-out: Plant response rating, Ryegrass, Italian
Outline: as §1

Row | Compound | pest or weed control at 125 g/ha [1] [%] | pest or weed control at 500 g/ha [1] [%] | pest or weed control at 125 g/ha [2] [%] | pest or weed control at 500 g/ha [2] [%] | pest or weed control at 125 g/ha [3] [%] | pest or weed control at 500 g/ha [3] [%] | pest or weed control at 125 g/ha [4] [%] | pest or weed control at 500 g/ha [4] [%] | pest or weed control at 125 g/ha [5] [%] | pest or weed control at 500 g/ha [5] [%] | pest or weed control at 125 g/ha [6] [%] | pest or weed control at 500 g/ha [6] [%] | pest or weed control at 250 g/ha [7] [%] | pest or weed control at 250 g/ha [8] [%] | pest or weed control at 250 g/ha [9] [%] | pest or weed control at 250 g/ha [10] [%] | Corn plant response rating (crop injury, 0 = no effect, 100 = complete kill) at 125 g/ha [11] [%] | pest or weed control at 125 g/ha [12] [%] | pest or weed control at 125 g/ha [14] [%] | pest or weed control at 125 g/ha [15] [%] | also measured
1 | O=C(Nc1ccccc1F)[C@H]1C(=S)NC[C@@H]1c1ccc(Cl)cc1 (racemic) [Compound 947] | 30 | 60 | 0 | 0 | 0 | 40 | 50 | 80 | 0 | 0 | 0 | 0 | 0 | 65 | 0 | 0 | 0 | 0 | 0 | 0 | pest or weed control at 125 g/ha [13]: 20%; pest or weed control at 125 g/ha [16]: 0%; plant injury at 125 g/ha [17]: 0%; pest or weed control at 125 g/ha [18]: 30%; pest or weed control at 125 g/ha [19]: 0%; pest or weed control at 125 g/ha [20]: 0%
2 | CSc1ccccc1NC(=O)[C@H]1C(=O)N(C)C[C@@H]1c1ccc(C)c(F)c1 [Compound 983] | 90 | 100 | 70 | 100 | 90 | 90 | 100 | 100 | 0 | 40 | 30 | 60 | 30 | 100 | 0 | 0 | 20 | 30 | 0 | 50 | pest or weed control at 125 g/ha [16]: 30%; plant injury at 125 g/ha [17]: 30%; pest or weed control at 125 g/ha [18]: 90%; pest or weed control at 125 g/ha [19]: 0%; pest or weed control at 125 g/ha [20]: 20%
